Experimental data reported in patent publication US8933103B2, “Pyridone derivatives” (Daiichi Sankyo Company, Limited, priority 2012, dated 2015).

Biological target: T1, AXL (fusion protein of amino acids 464-885 of the intracellular domain of human AXL with glutathione transferase) (Homo sapiens, UniProt P30530)
T1 sequence (P30530 464-885 isoform P30530-2): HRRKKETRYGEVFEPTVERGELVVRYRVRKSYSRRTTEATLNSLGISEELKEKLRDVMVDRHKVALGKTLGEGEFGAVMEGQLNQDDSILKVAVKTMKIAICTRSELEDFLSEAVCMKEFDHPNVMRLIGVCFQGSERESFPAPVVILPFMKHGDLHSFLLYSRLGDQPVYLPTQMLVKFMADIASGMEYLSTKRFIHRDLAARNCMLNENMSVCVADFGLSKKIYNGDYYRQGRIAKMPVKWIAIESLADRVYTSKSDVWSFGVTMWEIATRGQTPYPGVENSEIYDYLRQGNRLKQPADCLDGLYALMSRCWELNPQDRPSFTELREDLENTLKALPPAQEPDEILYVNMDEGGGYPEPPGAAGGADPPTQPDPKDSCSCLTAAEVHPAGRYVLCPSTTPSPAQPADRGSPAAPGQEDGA
Test: Cell-Free Axl Kinase Inhibitory Activity

SMILES	IC50
COc1cc(-c2cnc(N)c(-c3ccc(NC(=O)c4cn(CC(F)(F)F)cc(-c5ccc(F)cc5)c4=O)cc3)c2)ccc1OCCN1CCCC1 [Example 39, N-[4-(2-Amino-5-{3-methoxy-4-[2-(pyrrolidin-1-yl)ethoxy]phenyl}pyridin-3-yl)phenyl]-5-(4-fluorophenyl)-4-oxo-1-(2,2,2-trifluoroethyl)-1,4-dihydropyridine-3-carboxamide]	0.1 to 1 nM
COc1cc(-c2cnc(N)c(-c3ccc(NC(=O)c4cn(CCF)cc(-c5ccccc5)c4=O)cc3)c2)ccc1OCCN1CCCC1 [Example 40, N-(4-{2-Amino-5-[3-methoxy-4-(2-pyrrolidin-1-ylethoxy)phenyl]pyridin-3-yl}phenyl)-1-(2-fluoroethyl)-4-oxo-5-phenyl-1,4-dihydropyridine-3-carboxamide]	0.1 to 1 nM
COc1cc(-c2cnc(N)c(-c3ccc(NC(=O)c4cn(Cc5ccccc5)cc(-c5ccc(F)cc5)c4=O)cc3)c2)ccc1OC[C@H]1COCCO1 [Example 41, N-[4-(2-Amino-5-{4-[(2R)-1,4-dioxan-2-ylmethoxy]-3-methoxyphenyl}pyridin-3-yl)phenyl]-1-benzyl-5-(4-fluorophenyl)-4-oxo-1,4-dihydropyridine-3-carboxamide]	1 to 10 nM
COc1cc(-c2cnc(N)c(-c3ccc(NC(=O)c4cn(CC(F)(F)F)cc(-c5ccc(F)cc5)c4=O)cc3)c2)ccc1OC[C@H]1COCCO1 [Example 42, N-[4-(2-Amino-5-{4-[(2R)-1,4-dioxan-2-ylmethoxy]-3-methoxyphenyl}pyridin-3-yl)phenyl]-5-(4-fluorophenyl)-4-oxo-1-(2,2,2-trifluoroethyl)-1,4-dihydropyridine-3-carboxamide]	0.1 to 1 nM
COc1cc(-c2cnc(N)c(-c3ccc(NC(=O)c4cn(CCF)cc(-c5ccc(F)cc5)c4=O)cc3)c2)ccc1OC[C@H]1COCCO1 [Example 43, N-[4-(2-Amino-5-{4-[(2R)-1,4-dioxan-2-ylmethoxy]-3-methoxyphenyl}pyridin-3-yl)phenyl]-1-(2-fluoroethyl)-5-(4-fluorophenyl)-4-oxo-1,4-dihydropyridine-3-carboxamide]	1 to 10 nM
COc1cc(-c2cnc(N)c(-c3ccc(NC(=O)c4cn(CCF)cc(-c5ccccc5)c4=O)cc3)c2)ccc1OC[C@H]1COCCO1 [Example 44, N-[4-(2-Amino-5-{4-[(2R)-1,4-dioxan-2-ylmethoxy]-3-methoxyphenyl}pyridin-3-yl)phenyl]-1-(2-fluoroethyl)-4-oxo-5-phenyl-1,4-dihydropyridine-3-carboxamide]	1 to 10 nM
CCn1cc(C(=O)Nc2ccc(-c3cc(-c4ccc(OC[C@H]5COCCO5)c(OC)c4)cnc3N)cc2)c(=O)c(-c2ccccc2)c1 [Example 45, N-[4-(2-Amino-5-{4-[(2R)-1,4-dioxan-2-ylmethoxy]-3-methoxyphenyl}pyridin-3-yl)phenyl]-1-ethyl-4-oxo-5-phenyl-1,4-dihydropyridine-3-carboxamide]	1 to 10 nM
CCn1cc(C(=O)Nc2ccc(-c3cc(-c4ccc(OC[C@H]5COCCO5)c(OC)c4)cnc3N)cc2)c(=O)c(-c2ccc(F)cc2)c1 [Example 46, N-[4-(2-Amino-5-{4-[(2R)-1,4-dioxan-2-ylmethoxy]-3-methoxyphenyl}pyridin-3-yl)phenyl]-1-ethyl-5-(4-fluorophenyl)-4-oxo-1,4-dihydropyridine-3-carboxamide]	1 to 10 nM
CCn1cc(C(=O)Nc2ccc(-c3cc(-c4cnn(C)c4)cnc3N)cc2)c(=O)c(-c2ccc(F)cc2)c1 [Example 47, N-{4-[2-Amino-5-(1-methyl-1H-pyrazol-4-yl)pyridin-3-yl]phenyl}-1-ethyl-5-(4-fluorophenyl)-4-oxo-1,4-dihydropyridine-3-carboxamide]	1 to 10 nM
Cn1cc(-c2cnc(N)c(-c3ccc(NC(=O)c4cn(CCF)cc(-c5ccc(F)cc5)c4=O)cc3)c2)cn1 [Example 48, N-{4-[2-Amino-5-(1-methyl-1H-pyrazol-4-yl)pyridin-3-yl]phenyl}-1-(2-fluoroethyl)-5-(4-fluorophenyl)-4-oxo-1,4-dihydropyridine-3-carboxamide]	1 to 10 nM
Cn1cc(-c2cnc(N)c(-c3ccc(NC(=O)c4cn(CC(F)F)cc(-c5ccc(F)cc5)c4=O)cc3)c2)cn1 [Example 49, N-{4-[2-Amino-5-(1-methyl-1H-pyrazol-4-yl)pyridin-3-yl]phenyl}-1-(2,2-difluoroethyl)-5-(4-fluorophenyl)-4-oxo-1,4-dihydropyridine-3-carboxamide]	1 to 10 nM
Cn1cc(-c2cnc(N)c(-c3ccc(NC(=O)c4cn(CC(F)(F)F)cc(-c5ccc(F)cc5)c4=O)cc3)c2)cn1 [Example 50, N-{4-[2-Amino-5-(1-methyl-1H-pyrazol-4-yl)pyridin-3-yl]phenyl}-5-(4-fluorophenyl)-4-oxo-1-(2,2,2-trifluoroethyl)-1,4-dihydropyridine-3-carboxamide]	0.1 to 1 nM
Cn1cc(-c2cnc(N)c(-c3ccc(NC(=O)c4cn(Cc5ccccc5)cc(-c5ccc(F)cc5)c4=O)cc3)c2)cn1 [Example 51, N-{4-[2-Amino-5-(1-methyl-1H-pyrazol-4-yl)pyridin-3-yl]phenyl}-1-benzyl-5-(4-fluorophenyl)-4-oxo-1,4-dihydropyridine-3-carboxamide]	0.1 to 1 nM

Results, then the compound that gave them:

IC50	SMILES
1 to 10 nM	CCn1cc(C(=O)Nc2ccc(-c3cc(-c4cnn(C)c4)cnc3N)cc2)c(=O)c(-c2ccccc2)c1 [Example 52, N-{4-[2-Amino-5-(1-methyl-1H-pyrazol-4-yl)pyridin-3-yl]phenyl}-1-ethyl-4-oxo-5-phenyl-1,4-dihydropyridine-3-carboxamide]
1 to 10 nM	Cn1cc(-c2cnc(N)c(-c3ccc(NC(=O)c4cn(CCF)cc(-c5ccccc5)c4=O)cc3)c2)cn1 [Example 53, N-{4-[2-Amino-5-(1-methyl-1H-pyrazol-4-yl)pyridin-3-yl]phenyl}-1-(2-fluoroethyl)-4-oxo-5-phenyl-1,4-dihydropyridine-3-carboxamide]
1 to 10 nM	Cn1cc(-c2cnc(N)c(-c3ccc(NC(=O)c4cn(CC(F)(F)F)cc(-c5ccccc5)c4=O)cc3)c2)cn1 [Example 54, N-{4-[2-Amino-5-(1-methyl-1H-pyrazol-4-yl)pyridin-3-yl]phenyl}-4-oxo-5-phenyl-1-(2,2,2-trifluoroethyl)-1,4-dihydropyridine-3-carboxamide]
1 to 10 nM	Cn1cc(-c2cnc(N)c(-c3ccc(NC(=O)c4cn(CCF)cc(-c5ccccc5)c4=O)cc3F)c2)cn1 [Example 55, N-{4-[2-Amino-5-(1-methyl-1H-pyrazol-4-yl)pyridin-3-yl]-3-fluorophenyl}-1-(2-fluoroethyl)-4-oxo-5-phenyl-1,4-dihydropyridine-3-carboxamide]
1 to 10 nM	Cn1cc(-c2cnc(N)c(-c3ccc(NC(=O)c4cn(Cc5ccc(F)cc5)ccc4=O)cc3)c2)cn1 [Example 56, N-{4-[2-Amino-5-(1-methyl-1H-pyrazol-4-yl)pyridin-3-yl]phenyl}-1-(4-fluorobenzyl)-4-oxo-1,4-dihydropyridine-3-carboxamide]
1 to 10 nM	Cc1cc(=O)c(C(=O)Nc2ccc(-c3cc(-c4cnn(C)c4)cnc3N)cc2)cn1Cc1ccc(F)cc1 [Example 57, N-{4-[2-Amino-5-(1-methyl-1H-pyrazol-4-yl)pyridin-3-yl]phenyl}-1-(4-fluorobenzyl)-6-methyl-4-oxo-1,4-dihydropyridine-3-carboxamide]
1 to 10 nM	Cc1cn(Cc2ccc(F)cc2)cc(C(=O)Nc2ccc(-c3cc(-c4cnn(C)c4)cnc3N)cc2)c1=O [Example 58, N-{4-[2-Amino-5-(1-methyl-1H-pyrazol-4-yl)pyridin-3-yl]phenyl}-1-(4-fluorobenzyl)-5-methyl-4-oxo-1,4-dihydropyridine-3-carboxamide]
10 to 20 nM	COc1cn(Cc2ccc(F)cc2)cc(C(=O)Nc2ccc(-c3cc(-c4cnn(C)c4)cnc3N)cc2)c1=O [Example 59, N-{4-[2-Amino-5-(1-methyl-1H-pyrazol-4-yl)pyridin-3-yl]phenyl}-1-(4-fluorobenzyl)-5-methoxy-4-oxo-1,4-dihydropyridine-3-carboxamide]
1 to 10 nM	CN(C)C(=O)c1cn(Cc2ccc(F)cc2)cc(C(=O)Nc2ccc(-c3cc(-c4cnn(C)c4)cnc3N)cc2)c1=O [Example 60, N′-{4-[2-Amino-5-(1-methyl-1H-pyrazol-4-yl)pyridin-3-yl]phenyl}-1-(4-fluorobenzyl)-N,N-dimethyl-4-oxo-1,4-dihydropyridine-3,5-dicarboxamide]
1 to 10 nM	COc1ccc(-n2cc(-c3ccc(F)cc3)c(=O)c(C(=O)Nc3ccc(-c4cc(-c5cnn(C)c5)cnc4N)cc3)n2)cc1 [Example 61, N-{4-[2-Amino-5-(1-methyl-1H-pyrazol-4-yl)pyridin-3-yl]phenyl}-5-(4-fluorophenyl)-1-(4-methoxyphenyl)-4-oxo-1,4-dihydropyridazine-3-carboxamide]
0.1 to 1 nM	Nc1ncc(-c2cnn(C3CCNCC3)c2)cc1-c1ccc(NC(=O)c2cn(CCF)cc(-c3ccc(F)cc3)c2=O)cc1 [Example 62, N-{4-[2-Amino-5-(1-piperidin-4-yl-1H-pyrazol-4-yl)pyridin-3-yl]phenyl}-1-(2-fluoroethyl)-5-(4-fluorophenyl)-4-oxo-1,4-dihydropyridine-3-carboxamide]
0.1 to 1 nM	CCn1cc(C(=O)Nc2ccc(-c3cc(-c4cnn(C[C@H]5COCCO5)c4)cnc3N)cc2)c(=O)c(-c2ccc(F)cc2)c1 [Example 64, N-[4-(2-Amino-5-{1-[(2S)-1,4-dioxan-2-ylmethyl]-1H-pyrazol-4-yl}pyridin-3-yl)phenyl]-1-ethyl-5-(4-fluorophenyl)-4-oxo-1,4-dihydropyridine-3-carboxamide]
